Laboratory results published in US10251876B2, “Method for treating tumour, pharmaceutical composition and medicinal kit” (CHIA TAI TIANQING PHARMACEUTICAL GROUP CO., LTD., priority 2014, dated 2019).
Counter-ions that a name gives are not always drawn. Like-named read-outs stand apart in the source and are kept apart here. Each block holds one compound with its values, some of them ahead of it.

Assays:
[1] = Pharmacokinetics of single administration in solid tumour subjects; type: in vivo; conditions: human, plasma, single oral administration
Experimental: (§1) All the solid tumour subjects participating in the tolerance research in Example 3 were performed a monitor of plasma concentration to evaluate pharmacokinetic parameters of the capsule of Compound I dihydrochloride. • (1) Pharmacokinetics of Single Administration
After beginning the tests, the qualified subjects took the capsule of Compound I dihydrochloride once and performed pharmacokinetic studies of single administration.

[2] = Pharmacokinetics of continuous administration (2 weeks, rest 1 week) in solid tumour subjects; type: in vivo; conditions: human, plasma, oral
Experimental: as §1
The qualified subjects took the drug once and performed pharmacokinetic monitor of single administration. After subjecting to at least 7 days of a washout period, pharmacokinetic studies of continuous administration were performed. One treating cycle has continuous administration for 2 weeks and rest for 1 week, and continuous monitor were applied for at least 2 cycles. A total of 21 subjects in 3 dose groups (10 mg, 16 mg and 12 mg, respectively) continuously took the capsules of Compound I dihydrochloride, while performing the monitor of plasma concentration.

malignant tumor patients = assay: Preliminary and overall therapeutic effect in malignant tumor patients; type: in vivo, human; conditions: continuous administration for two weeks and rest for one week
Experimental: The malignant tumor patients those were diagnosed definitely and had failed standard treatment or lacking standard treatment were recruited for phase I study of tolerance and preliminary therapeutic effect. The tolerance was observed when patients were administered 5 mg or 10 mg of the capsules of dihydrochloride of Compound I once daily respectively for at least 2 cycles continuously, wherein each cycle was 28 days.
After the adjustment of the dosage regimen, the malignant tumor patients those were diagnosed definitely and had failed standard treatment or lacking standard treatment were recruited, continuous administrating for 2 weeks and resting for 1 week were applied, i.e., 3 weeks (21 days) was a treatment cycle, and the observation of tolerance was continuously performed and maintained at least 2 cycles (42 days), and the observation of therapeutic effects was performed at the same time.

- AUC(0-inf) ([1]; 10 mg/person, n = 4, mean): 570 ng·h/mL
- AUC(0-t) ([1]; 10 mg/person, n = 4, mean): 327 ng·h/mL
- Cmax ([1]; 10 mg/person, n = 4, mean): 6.07 ng/mL
- MRT ([1]; 10 mg/person, n = 4, mean): 142 h
- Tmax ([1]; 10 mg/person, n = 4, mean): 6.75 h
- half-life ([1]; 10 mg/person, n = 4, mean, read-out: t1/2 (converted)): 3.7 days
- AUC(0-inf) ([1]; 12 mg/person, n = 11, mean): 1160 ng·h/mL
- AUC(0-t) ([1]; 12 mg/person, n = 11, mean): 938 ng·h/mL
- Cmax ([1]; 12 mg/person, n = 11, mean): 11.3 ng/mL
- MRT ([1]; 12 mg/person, n = 11, mean): 162 h
- Tmax ([1]; 12 mg/person, n = 11, mean): 8.73 h
- half-life ([1]; 12 mg/person, n = 11, mean, read-out: t1/2 (converted)): 3.83 days
- AUC(0-inf) ([1]; 16 mg/person, n = 4, mean): 1720 ng·h/mL
- AUC(0-t) ([1]; 16 mg/person, n = 4, mean): 1330 ng·h/mL
- Cmax ([1]; 16 mg/person, n = 4, mean): 16.1 ng/mL
- MRT ([1]; 16 mg/person, n = 4, mean): 163 h
- Tmax ([1]; 16 mg/person, n = 4, mean): 10 h
- half-life ([1]; 16 mg/person, n = 4, mean, read-out: t1/2 (converted)): 4.03 days
- half-life ([1]; read-out: half-life period (t1/2)): 3.33 to 4.17 days
- Cmax ([2]; 10 mg/person, n = 3, average (RSD %)): 64.9 ng/mL
- Cmax ([2]; 12 mg/person, n = 15, average (RSD %)): 67 ng/mL
- Cmax ([2]; 16 mg/person, n = 3, average (RSD %)): 93.1 ng/mL
SMILES: COc1cc2c(Oc3ccc4[nH]c(C)cc4c3F)ccnc2cc1OCC1(N)CC1 [Compound I, 1-[[[4-(4-fluoro-2-methyl-1H-indol-5-yl)oxy-6-methoxyquinolin-7-yl]oxy]methyl]cyclopropylamine]

SMILES: COc1cc2c(Oc3ccc4[nH]c(C)cc4c3F)ccnc2cc1OCC1(N)CC1 [Compound I dihydrochloride, 1-[[[4-(4-fluoro-2-methyl-1H-indol-5-yl)oxy-6-methoxyquinolin-7-yl]oxy]methyl]cyclopropylamine dihydrochloride]
- therapeutic effects, overall (malignant tumor patients): various tumours can benefit
